Results published in ChEMBL document CHEMBL1201862, “PubChem BioAssay data set” (2004).
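Compound exposure: 48 hours, 5 concentrations, 96-well plates. At the GI50, growth is halved.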 Activity calls are given as the source filed them. Rule as the data show it: active = GI50 up to about 1.1 µM and inactive = higher.

Key:
Experiment in all cases: DTP human tumour cell line panel, 48 h
[1] = system: KM-20L2
[2] = system: M14
[3] = system: SNB-75
[4] = system: SF-539
[5] = system: HCC 2998
[6] = system: IGROV-1
[7] = system: HCT-116
[8] = system: OVCAR-4
[9] = system: RXF 393
[10] = system: EKVX
[11] = system: SR
[12] = system: SK-MEL-2
[13] = system: RPMI-8226
[14] = system: SF-268
[15] = system: SF-295
[16] = system: ACHN
[17] = system: LOX IMVI
[18] = system: UO-31
[19] = system: CAKI-1
[20] = system: XF498
[21] = system: UACC-257
[22] = system: U-251
[23] = system: DMS-114
[24] = system: A498
[25] = system: HOP-62
[26] = system: MOLT-4
[27] = system: HCT-15
[28] = system: DMS-273
[29] = system: NCI-H23
[30] = system: SNB-19
[31] = system: NCI-H226
[32] = system: CCRF-CEM
[33] = system: OVCAR-8
[34] = system: COLO 205
[35] = system: Malme-3M
[36] = system: NCI-H460
[37] = system: 786-0
[38] = system: HL-60
[39] = system: TK-10
[40] = system: SN12C
[41] = system: HT-29
[42] = system: A549
[43] = system: NCI-H522
[44] = system: UACC-62
[45] = system: LXFL 529
[46] = system: K562
[47] = system: SK-MEL-5
[48] = system: DLD-1
[49] = system: SW-620
[50] = system: KM12
[51] = system: M19-MEL
[52] = system: OVCAR-3
[53] = system: SK-MEL-28
[54] = system: SK-OV-3
[55] = system: SNB-78
[56] = system: HOP-92
[57] = system: OVCAR-5

SMILES: C=C1CC(CC)(CCN2C(=O)c3ccccc3C2=O)OC1=O (stereo unspecified)
- GI50 [1]: 15.8 µM (inactive)
- GI50 [2]: 10.9 µM (inactive)
- GI50 [3]: 43.8 µM (inactive)
- GI50 [4]: 18.9 µM (inactive)
- GI50 [5]: 17.7 µM (inactive)
- GI50 [6]: 35.8 µM (inactive)
- GI50 [7]: 12.6 µM (inactive)
- GI50 [8]: 14.2 µM (inactive)
- GI50 [9]: 15.5 µM (inactive)
- GI50 [10]: 17 µM (inactive)
- GI50 [11]: 27.4 µM (inactive)
- GI50 [12]: 12.9 µM (inactive)
- GI50 [13]: 22.7 µM (inactive)
- GI50 [14]: 1.08 µM (active)
- GI50 [15]: 29.2 µM (inactive)
- GI50 [16]: 14.9 µM (inactive)
- GI50 [17]: 14.2 µM (inactive)
- GI50 [18]: 19.7 µM (inactive)
- GI50 [19]: 2.09 µM (inactive)
- GI50 [20]: 13.4 µM (inactive)
- GI50 [21]: 13.8 µM (inactive)
- GI50 [22]: > 10 µM (inactive)
- GI50 [23]: 19.2 µM (inactive)
- GI50 [24]: 19.2 µM (inactive)
- GI50 [25]: 35.9 µM (inactive)
- GI50 [26]: 21.9 µM (inactive)
- GI50 [27]: 13.9 µM
- GI50 [28]: 11.4 µM (inactive)
- GI50 [29]: 14.1 µM (inactive)
- GI50 [30]: > 10 µM (inactive)
- GI50 [31]: 13.8 µM (inactive)
- GI50 [32]: 7.71 µM (inactive)
- GI50 [33]: 16.4 µM (inactive)
- GI50 [34]: 16.7 µM (inactive)
- GI50 [35]: 11.8 µM (inactive)
- GI50 [36]: 69.2 µM (inactive)
- GI50 [37]: 11.9 µM (inactive)
- GI50 [38]: 9.2 µM (inactive)
- GI50 [39]: 17.7 µM (inactive)
- GI50 [40]: 18.6 µM (inactive)
- GI50 [41]: 14.1 µM (inactive)
- GI50 [42]: 27.7 µM (inactive)
- GI50 [43]: 3.48 µM (inactive)
- GI50 [44]: 13.3 µM (inactive)
- GI50 [45]: 13.6 µM (inactive)
- GI50 [46]: 20.8 µM (inactive)
- GI50 [47]: 12.9 µM (inactive)
- GI50 [48]: 17.9 µM (inactive)
- GI50 [49]: 7.55 µM (inactive)
- GI50 [50]: 21 µM (inactive)

SMILES: Cc1cccc(C)c1NC(=O)CCCC(=O)C1CC(=O)CCC1=O (stereo unspecified)
- GI50 [1]: > 100 µM (inactive)
- GI50 [51]: > 100 µM (inactive)
- GI50 [3]: > 100 µM (inactive)
- GI50 [4]: > 100 µM (inactive)
- GI50 [5]: > 100 µM (inactive)
- GI50 [7]: > 100 µM (inactive)
- GI50 [8]: > 100 µM (inactive)
- GI50 [9]: > 100 µM (inactive)
- GI50 [10]: > 100 µM (inactive)
- GI50 [52]: > 100 µM (inactive)
- GI50 [11]: > 100 µM (inactive)
- GI50 [13]: > 100 µM (inactive)
- GI50 [14]: > 100 µM (inactive)
- GI50 [53]: > 100 µM (inactive)
- GI50 [16]: > 100 µM (inactive)
- GI50 [18]: > 100 µM (inactive)
- GI50 [20]: > 100 µM (inactive)
- GI50 [21]: > 100 µM (inactive)
- GI50 [22]: > 100 µM (inactive)
- GI50 [23]: > 100 µM (inactive)
- GI50 [24]: > 100 µM (inactive)
- GI50 [25]: > 100 µM (inactive)
- GI50 [26]: > 100 µM (inactive)
- GI50 [27]: > 100 µM
- GI50 [29]: > 100 µM (inactive)
- GI50 [30]: > 100 µM (inactive)
- GI50 [31]: > 100 µM (inactive)
- GI50 [33]: > 100 µM (inactive)
- GI50 [35]: > 100 µM (inactive)
- GI50 [37]: > 100 µM (inactive)
- GI50 [40]: > 100 µM (inactive)
- GI50 [41]: > 100 µM (inactive)
- GI50 [43]: > 100 µM (inactive)
- GI50 [44]: > 100 µM (inactive)
- GI50 [54]: > 100 µM (inactive)
- GI50 [48]: > 100 µM (inactive)
- GI50 [55]: > 100 µM (inactive)

SMILES: COC1CC(n2cnc3c(N)ncnc32)OC1CO (stereo unspecified)
- GI50 [1]: > 100 µM (inactive)
- GI50 [2]: > 100 µM (inactive)
- GI50 [51]: > 100 µM (inactive)
- GI50 [3]: > 100 µM (inactive)
- GI50 [4]: > 100 µM (inactive)
- GI50 [5]: > 100 µM (inactive)
- GI50 [6]: > 100 µM (inactive)
- GI50 [7]: > 100 µM (inactive)
- GI50 [8]: > 100 µM (inactive)
- GI50 [52]: > 100 µM (inactive)
- GI50 [11]: > 100 µM (inactive)
- GI50 [12]: > 100 µM (inactive)
- GI50 [56]: > 100 µM (inactive)
- GI50 [13]: > 100 µM (inactive)
- GI50 [14]: > 100 µM (inactive)
- GI50 [15]: > 100 µM (inactive)
- GI50 [53]: > 100 µM (inactive)
- GI50 [16]: > 100 µM (inactive)
- GI50 [18]: > 100 µM (inactive)
- GI50 [19]: > 100 µM (inactive)
- GI50 [20]: > 100 µM (inactive)
- GI50 [21]: > 100 µM (inactive)
- GI50 [22]: > 100 µM (inactive)
- GI50 [23]: > 100 µM (inactive)
- GI50 [25]: > 100 µM (inactive)
- GI50 [57]: > 100 µM (inactive)
- GI50 [26]: > 100 µM (inactive)
- GI50 [27]: > 100 µM
- GI50 [28]: > 100 µM (inactive)
- GI50 [29]: 81.5 µM (inactive)
- GI50 [30]: > 100 µM (inactive)
- GI50 [31]: > 100 µM (inactive)
- GI50 [32]: 56 µM (inactive)
- GI50 [33]: > 100 µM (inactive)
- GI50 [34]: > 100 µM (inactive)
- GI50 [35]: > 100 µM (inactive)
- GI50 [36]: > 100 µM (inactive)
- GI50 [37]: > 100 µM (inactive)
- GI50 [38]: > 100 µM (inactive)
- GI50 [39]: > 100 µM (inactive)
- GI50 [41]: > 100 µM (inactive)
- GI50 [42]: > 100 µM (inactive)
- GI50 [43]: > 100 µM (inactive)
- GI50 [44]: > 100 µM (inactive)
- GI50 [45]: > 100 µM (inactive)
- GI50 [46]: > 100 µM (inactive)
- GI50 [47]: > 100 µM (inactive)
- GI50 [48]: > 100 µM (inactive)
- GI50 [49]: > 100 µM (inactive)
- GI50 [50]: > 100 µM (inactive)

SMILES: Cn1c(=O)c(C(=O)NC23CC4CC(CC(C4)C2)C3)c(O)c2ccccc21
- GI50 [1]: 28.9 µM (inactive)
- GI50 [2]: 28.8 µM (inactive)
- GI50 [51]: 49.8 µM (inactive)
- GI50 [3]: 28.4 µM (inactive)
- GI50 [4]: 26.7 µM (inactive)
- GI50 [5]: > 10 µM (inactive)
- GI50 [6]: 31.8 µM (inactive)
- GI50 [7]: 23.5 µM (inactive)
- GI50 [9]: 14.8 µM (inactive)
- GI50 [10]: 31.5 µM (inactive)
- GI50 [52]: 23.4 µM (inactive)
- GI50 [11]: > 100 µM (inactive)
- GI50 [13]: > 100 µM (inactive)
- GI50 [14]: 74.5 µM (inactive)
- GI50 [15]: 18.5 µM (inactive)
- GI50 [53]: 37.7 µM (inactive)
- GI50 [16]: 19.9 µM (inactive)
- GI50 [17]: 43.4 µM (inactive)
- GI50 [18]: 50.1 µM (inactive)
- GI50 [21]: 28.8 µM (inactive)
- GI50 [22]: 24.5 µM (inactive)
- GI50 [23]: 45.6 µM (inactive)
- GI50 [25]: 21.8 µM (inactive)
- GI50 [26]: > 100 µM (inactive)
- GI50 [27]: > 100 µM
- GI50 [28]: 26.2 µM (inactive)
- GI50 [29]: 67.9 µM (inactive)
- GI50 [30]: 21.2 µM (inactive)
- GI50 [31]: 13.4 µM (inactive)
- GI50 [32]: > 100 µM (inactive)
- GI50 [33]: 23.3 µM (inactive)
- GI50 [34]: 46.1 µM (inactive)
- GI50 [35]: 21.2 µM (inactive)
- GI50 [36]: 22.3 µM (inactive)
- GI50 [37]: 14.3 µM (inactive)
- GI50 [38]: 25.1 µM (inactive)
- GI50 [39]: 23.8 µM (inactive)
- GI50 [40]: 21.9 µM (inactive)
- GI50 [41]: 15.8 µM (inactive)
- GI50 [42]: 28.8 µM (inactive)
- GI50 [43]: > 100 µM (inactive)
- GI50 [44]: 53.7 µM (inactive)
- GI50 [45]: 59.4 µM (inactive)
- GI50 [46]: > 100 µM (inactive)
- GI50 [54]: 20.9 µM (inactive)
- GI50 [48]: 50.7 µM (inactive)
- GI50 [55]: 43.3 µM (inactive)
- GI50 [49]: 56.1 µM (inactive)
- GI50 [50]: > 100 µM (inactive)
